According to ChEMBL document CHEMBL6127068, “Discovery of novel nitrofuran PROTAC-like compounds as dual inhibitors and degraders targeting STING” (Eur J Med Chem, 2024):
Active and inactive are the calls of the source.

What was measured:
[1] = target: T1, Protein cereblon/Stimulator of interferon genes protein (Homo sapiens, UniProt Q96SW2+Q86WV6); experiment: PROTAC activity at CRBN/STING in human THP-1 cells assessed as inhibition of cGAMP-induced TNF-alpha mRNA expression incubated for 1 hr followed by stimulation with cGAMP for 24 hrs by qRT-PCR analysis; format: cell-based; conditions: dose 5-20 µM, time 25.0 hrs
Target sequence in this assay (Q86WV6 whole entry, looked up): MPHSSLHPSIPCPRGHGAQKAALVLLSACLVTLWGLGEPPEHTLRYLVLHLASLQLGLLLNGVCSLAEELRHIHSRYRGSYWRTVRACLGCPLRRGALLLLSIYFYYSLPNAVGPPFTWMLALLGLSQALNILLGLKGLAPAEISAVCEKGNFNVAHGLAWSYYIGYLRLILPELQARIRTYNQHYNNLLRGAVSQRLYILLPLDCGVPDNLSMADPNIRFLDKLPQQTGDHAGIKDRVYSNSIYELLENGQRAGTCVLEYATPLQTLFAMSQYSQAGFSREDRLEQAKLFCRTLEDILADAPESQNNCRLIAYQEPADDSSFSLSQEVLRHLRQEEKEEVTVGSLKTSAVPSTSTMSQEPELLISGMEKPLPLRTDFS
Target sequence in this assay (Q96SW2 whole entry, looked up): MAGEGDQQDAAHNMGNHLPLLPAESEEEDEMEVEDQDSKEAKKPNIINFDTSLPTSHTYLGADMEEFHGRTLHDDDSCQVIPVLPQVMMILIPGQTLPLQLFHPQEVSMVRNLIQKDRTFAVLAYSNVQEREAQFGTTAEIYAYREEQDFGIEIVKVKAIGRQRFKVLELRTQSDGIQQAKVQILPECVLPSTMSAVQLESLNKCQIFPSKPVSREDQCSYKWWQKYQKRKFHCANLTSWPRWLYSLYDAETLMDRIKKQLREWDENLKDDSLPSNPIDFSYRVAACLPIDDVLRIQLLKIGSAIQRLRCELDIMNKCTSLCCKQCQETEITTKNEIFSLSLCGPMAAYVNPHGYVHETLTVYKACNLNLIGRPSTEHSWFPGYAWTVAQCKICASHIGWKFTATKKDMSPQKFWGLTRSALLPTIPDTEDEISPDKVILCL

[2] = Stability of the compound in human plasma assessed as parent compound remaining at 400 ug/ml measured after 24 hrs by HPLC analysis; format: ADME, cell-free; conditions: at 400 µg/mL, read-out: Stability
[3] = system: Mus musculus; experiment: Anti-inflammatory activity against C57BL/6J mouse assessed as inhibition of cisplatin-induced hepatic impairment by measuring restoration of AST activity at 25 to 50 mg/kg; format: functional, organism-based; conditions: dose 25-50 mg/kg
[4] = target: T1, Protein cereblon/Stimulator of interferon genes protein; experiment: PROTAC activity at CRBN/STING in human THP-1 cells assessed as inhibition of cGAMP-induced IL-6 mRNA expression incubated for 1 hr followed by stimulation with cGAMP for 24 hrs by qRT-PCR analysis; format: cell-based; conditions: dose 5-20 µM, time 25.0 hrs
Target sequence in this assay (Q86WV6 whole entry, looked up): as the sequence (Q86WV6 whole entry, looked up) above
Target sequence in this assay (Q96SW2 whole entry, looked up): as the sequence (Q96SW2 whole entry, looked up) above

[5] = target: T1, Protein cereblon/Stimulator of interferon genes protein; experiment: PROTAC activity at CRBN/STING in human THP-1 cells assessed as inhibition of cGAMP-induced IFN-beta mRNA expression incubated for 1 hr followed by stimulation with cGAMP for 24 hrs by qRT-PCR analysis; format: cell-based; conditions: dose 5-20 µM, time 25.0 hrs
Target sequence in this assay (Q86WV6 whole entry, looked up): as the sequence (Q86WV6 whole entry, looked up) above
Target sequence in this assay (Q96SW2 whole entry, looked up): as the sequence (Q96SW2 whole entry, looked up) above

[6] = target: T2, Stimulator of interferon genes protein (Mus musculus) (UniProt Q3TBT3); experiment: Inhibition of STING in mouse RAW264.7 cells assessed as reduction in DMXAA-induced IL-6 mRNA expression at 5 to 20 uM pretreated for 1 hr followed by stimulation with DMXAA for 24 hrs by qRT-CPR analysis; format: cell-based; conditions: dose 5-20 µM, time 25.0 hrs
T2 sequence (whole entry): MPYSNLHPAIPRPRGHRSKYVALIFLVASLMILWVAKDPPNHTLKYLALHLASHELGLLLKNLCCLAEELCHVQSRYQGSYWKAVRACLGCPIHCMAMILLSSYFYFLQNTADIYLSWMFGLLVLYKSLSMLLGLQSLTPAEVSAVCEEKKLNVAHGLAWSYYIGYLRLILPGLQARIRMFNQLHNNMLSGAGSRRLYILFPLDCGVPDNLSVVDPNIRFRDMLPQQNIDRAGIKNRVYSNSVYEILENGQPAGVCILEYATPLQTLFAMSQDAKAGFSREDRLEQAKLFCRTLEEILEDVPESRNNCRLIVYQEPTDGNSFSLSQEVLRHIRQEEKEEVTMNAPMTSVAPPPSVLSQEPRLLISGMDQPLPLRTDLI

[7] = target: T1, Protein cereblon/Stimulator of interferon genes protein; experiment: PROTAC activity at CRBN/STING in human THP-1 cells assessed as induction of STING degradation incubated for 24 hrs by western blot analysis; format: cell-based
Target sequence in this assay (Q96SW2 whole entry): as the sequence (Q96SW2 whole entry, looked up) above
Target sequence in this assay (Q86WV6 whole entry): as the sequence (Q86WV6 whole entry, looked up) above

[8] = target: T3, Protein cereblon/Stimulator of interferon genes protein (Mus musculus) (UniProt Q3TBT3+Q8C7D2); experiment: PROTAC activity at CRBN/STING in mouse RAW264.7 cells assessed as induction of STING degradation at 0.33 to 30 uM incubated for 24 hrs by western blot analysis; format: cell-based; conditions: dose 0.33-30 µM
[9] = target: T1, Protein cereblon/Stimulator of interferon genes protein; experiment: PROTAC activity at CRBN/STING in human THP-1 cells assessed as inhibition of cGAMP-induced ISG15 mRNA expression incubated for 1 hr followed by stimulation with cGAMP for 24 hrs by qRT-PCR analysis; format: cell-based; conditions: dose 5-20 µM, time 25.0 hrs
Target sequence in this assay (Q86WV6 whole entry, looked up): as above
Target sequence in this assay (Q96SW2 whole entry, looked up): as the sequence (Q96SW2 whole entry, looked up) above

[10] = target: T1, Protein cereblon/Stimulator of interferon genes protein; experiment: PROTAC activity at CRBN/STING in human THP-1 cells assessed as induction of STING degradation at 10 uM by western blot analysis; format: cell-based; conditions: time 3-36 hrs, TDE = time-dependent effect
Target sequence in this assay (Q86WV6 whole entry, looked up): as the sequence (Q86WV6 whole entry, looked up) above
Target sequence in this assay (Q96SW2 whole entry, looked up): as the sequence (Q96SW2 whole entry, looked up) above

[11] = target: T3, Protein cereblon/Stimulator of interferon genes protein (Mus musculus); experiment: In vivo inhibition of STING signaling pathway in C57BL/6J mouse assessed as inhibition of cisplatin-induced TNF-alpha mRNA expression in kidney at 25 to 50 mg/kg by qPCR analysis; format: functional, organism-based; conditions: dose 25-50 mg/kg
[12] = target: T3, Protein cereblon/Stimulator of interferon genes protein (Mus musculus); experiment: In vivo inhibition of STING signaling pathway in C57BL/6J mouse assessed as inhibition of cisplatin-induced IL-1 beta mRNA expression in kidney at 25 to 50 mg/kg by qPCR analysis; format: functional, organism-based; conditions: dose 25-50 mg/kg
[13] = system: Mus musculus; experiment: Anti-inflammatory activity against cisplatin-induced acute kidney injury C57BL/6J mouse model assessed as decrease in plasma creatinine level at 25 to 50 mg/kg; format: functional, organism-based; conditions: dose 25-50 mg/kg
[14] = system: THP-1; experiment: PROTAC activity at CRBN/Akt in human THP-1 cells assessed as induction of Akt degradation at 2.5 to 40 uM incubated for 24 hrs by western blot analysis; format: cell-based; conditions: dose 2.5-40 µM
[15] = system: Mus musculus; experiment: Anti-inflammatory activity against cisplatin-induced acute kidney injury C57BL/6J mouse model assessed as decrease in kidney damage at 25 to 50 mg/kg by Hematoxylin-Eosin staining based microscopic analysis; format: functional, organism-based; conditions: dose 25-50 mg/kg
[16] = target: T1, Protein cereblon/Stimulator of interferon genes protein; experiment: PROTAC activity at CRBN/STING in human THP-1 cells assessed as inhibition of cGAMP-induced IRF3 phosphorylation incubated for 24 hrs followed by stimulation with cGAMP for 24 hrs by western blot analysis; format: cell-based; conditions: dose 0.3-20 µM, time 48.0 hrs
Target sequence in this assay (Q86WV6 whole entry, looked up): as the sequence (Q86WV6 whole entry, looked up) above
Target sequence in this assay (Q96SW2 whole entry, looked up): as the sequence (Q96SW2 whole entry, looked up) above

[17] = Toxicity against cisplatin-induced acute kidney injury C57BL/6J mouse model assessed as effect on liver morphology at 25 to 50 mg/kg by Hematoxylin-Eosin staining based microscopic analysis; format: organism-based; conditions: in vivo, dose 25-50 mg/kg
[18] = target: Protein cereblon/Signal transducer and activator of transcription 3 (Homo sapiens) (UniProt P40763+Q96SW2); experiment: PROTAC activity at CRBN/STAT3 in human THP-1 cells assessed as induction of STAT3 degradation at 2.5 to 40 uM incubated for 24 hrs by western blot analysis; format: cell-based; conditions: dose 2.5-40 µM
[19] = system: Mus musculus; experiment: Anti-inflammatory activity against cisplatin-induced acute kidney injury C57BL/6J mouse model assessed as decrease in plasma uric acid level at 25 to 50 mg/kg; format: functional, organism-based; conditions: dose 25-50 mg/kg
[20] = target: T2, Stimulator of interferon genes protein (Mus musculus); experiment: Inhibition of STING in mouse RAW264.7 cells assessed as reduction in DMXAA-induced IFN-beta mRNA expression at 5 to 20 uM pretreated for 1 hr followed by stimulation with DMXAA for 24 hrs by qRT-CPR analysis; format: cell-based; conditions: dose 5-20 µM, time 25.0 hrs
[21] = target: T1, Protein cereblon/Stimulator of interferon genes protein; experiment: PROTAC activity at CRBN/STING in human THP-1 cells assessed as inhibition of cGAMP-induced CXCL10 mRNA expression incubated for 1 hr followed by stimulation with cGAMP for 24 hrs by qRT-PCR analysis; format: cell-based; conditions: dose 5-20 µM, time 25.0 hrs
[22] = system: Mus musculus; experiment: Anti-inflammatory activity against C57BL/6J mouse assessed as inhibition of cisplatin-induced hepatic impairment by measuring restoration of ALT activity at 25 to 50 mg/kg; format: functional, organism-based; conditions: dose 25-50 mg/kg
[23] = target: T3, Protein cereblon/Stimulator of interferon genes protein (Mus musculus); experiment: In vivo inhibition of STING signaling pathway in C57BL/6J mouse assessed as inhibition of cisplatin-induced ISG15 mRNA expression in kidney at 25 to 50 mg/kg by qPCR analysis; format: functional, organism-based; conditions: dose 25-50 mg/kg
[24] = target: T2, Stimulator of interferon genes protein (Mus musculus); experiment: Inhibition of STING in mouse RAW264.7 cells assessed as reduction in DMXAA-induced TNF-alpha mRNA expression at 5 to 20 uM pretreated for 1 hr followed by stimulation with DMXAA for 24 hrs by qRT-CPR analysis; format: cell-based; conditions: dose 5-20 µM, time 25.0 hrs

T3 sequence (Q8C7D2 whole entry, looked up, one chain of several): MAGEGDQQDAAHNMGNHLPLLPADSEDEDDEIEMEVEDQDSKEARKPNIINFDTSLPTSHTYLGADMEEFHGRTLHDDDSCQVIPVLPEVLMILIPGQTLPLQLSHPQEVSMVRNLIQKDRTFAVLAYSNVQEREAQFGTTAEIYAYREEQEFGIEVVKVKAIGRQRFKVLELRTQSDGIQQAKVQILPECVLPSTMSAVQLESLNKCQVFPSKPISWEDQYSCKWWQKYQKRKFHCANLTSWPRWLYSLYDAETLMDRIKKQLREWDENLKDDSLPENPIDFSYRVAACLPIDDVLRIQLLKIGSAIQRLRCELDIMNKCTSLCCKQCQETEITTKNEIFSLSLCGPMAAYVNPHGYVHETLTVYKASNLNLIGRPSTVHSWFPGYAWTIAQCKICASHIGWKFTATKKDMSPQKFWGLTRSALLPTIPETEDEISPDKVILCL
Sequence of Protein cereblon/Signal transducer and activator of transcription 3 (Homo sapiens) (P40763 2-770 limits assumed): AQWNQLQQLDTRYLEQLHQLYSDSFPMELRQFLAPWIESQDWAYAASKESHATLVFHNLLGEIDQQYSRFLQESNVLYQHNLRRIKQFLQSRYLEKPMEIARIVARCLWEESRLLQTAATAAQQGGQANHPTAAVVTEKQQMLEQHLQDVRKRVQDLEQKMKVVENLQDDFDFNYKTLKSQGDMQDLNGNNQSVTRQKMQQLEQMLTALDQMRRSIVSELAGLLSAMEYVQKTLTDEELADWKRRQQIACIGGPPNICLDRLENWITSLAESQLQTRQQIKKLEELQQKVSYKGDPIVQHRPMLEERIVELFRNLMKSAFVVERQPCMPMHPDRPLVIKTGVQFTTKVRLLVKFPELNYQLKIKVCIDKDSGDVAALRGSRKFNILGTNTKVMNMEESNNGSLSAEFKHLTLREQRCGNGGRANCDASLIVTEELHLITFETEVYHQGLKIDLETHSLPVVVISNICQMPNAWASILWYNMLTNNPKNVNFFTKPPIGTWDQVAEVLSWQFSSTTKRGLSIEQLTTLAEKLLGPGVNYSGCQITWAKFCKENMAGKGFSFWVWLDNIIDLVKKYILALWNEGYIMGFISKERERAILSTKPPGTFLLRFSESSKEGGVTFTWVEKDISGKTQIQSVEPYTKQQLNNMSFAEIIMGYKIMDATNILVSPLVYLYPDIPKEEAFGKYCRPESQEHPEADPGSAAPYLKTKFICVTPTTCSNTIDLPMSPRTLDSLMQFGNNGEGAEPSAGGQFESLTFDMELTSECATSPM
Sequence of Protein cereblon/Signal transducer and activator of transcription 3 (Homo sapiens) (Q96SW2 whole entry partner): as the sequence (Q96SW2 whole entry, looked up) above

O=C1CCC(N2C(=O)c3cccc(OCc4cn(CCCCCC(=O)OCCc5ccc(NC(=O)c6ccc([N+](=O)[O-])o6)cc5)nn4)c3C2=O)C(=O)N1 (centres undefined)
active: Activity [1] Dose-Dependent Effect | Activity [3] | Activity [4] Dose-Dependent Effect | Activity [5] Dose-Dependent Effect | inhibition [6] Dose-Dependent Effect | Activity [9] Dose-Dependent Effect | Activity [10] Tde | inhibition [11] | inhibition [12] | Activity [13] | Activity [15] | Activity [16] Dose-Dependent Effect | Activity [19] | inhibition [20] Dose-Dependent Effect | Activity [21] Dose-Dependent Effect | Activity [22] | inhibition [23] | inhibition [24] Dose-Dependent Effect
~66%: remaining at 24 h, 400 ug/ml [2]
2580 nM: DC50 [7]
inactive: Activity [8] | Activity [14] | Activity [18]
Non-Toxic: Activity [17]
